Laboratory results as given in patent US20240207422A1, “NERVE TARGETING PEPTIDE CONJUGATES AND METHODS OF USE” (Alume Biosciences, Inc., priority 2022, published 2024).

Columns and labels:
human nerve extract = assay: Phage display selection on plates coated with human nerve extract (Plated Nerve2), NextGen sequence counts; format: binding; settings: unique sequence count (relative enrichment); Plated Nerve2 only
Protocol: Several m13 phage libraries were constructed expressing randomized variants of a parent peptide (QVPWEEPYYVVKKS-SGGL; SEQ ID NO: 576). In particular, the first 14 amino acids of the parent peptide were randomized using degenerate oligonucleotide synthesis to obtain a diverse set of peptides with a mutation rate of about 50% per residue.
To accomplish this, synthesis was carried out by the XXK codon design approach, where X is any base and K is G or T. To bias synthesis towards the parent sequence, synthesis was carried out at each X position with a mixture of about 70%-85% of the parent nucleotide and 15-30% of the remaining 3 nucleotides. The resulting molecules were inserted into fADL-1e (Antibody Design Laboratories), which is a type 3 phage display vector having a cloning site on the N-terminal side of the full-length gene III protein. The fusion proteins are directed to the periplasm by the PelB leader peptide, which is inserted in the vector […].
Collectively, the phage display libraries used in the screens comprised about 600 million peptides, with sequencing analysis confirming a mutation rate of about 50% per residue.
Phage libraries were independently processed, as follows, with five biological samples: two independent samples of excised human nerve tissue, one sample of a human nerve extract, and two independent samples of human muscle tissue, as follows:
Human Nerve Extracts: Phage libraries were incubated for up to 24 hours at 4° C. in 96 well plates that had been coated with a human nerve extract. Plates were then washed with PBS and phage were eluted using 0.2M glycine pH 2.0. Phage supernatants where then neutralized with Tris pH 9.0 prior to plating on TG1 bacteria and LB agar plates. Colonies were counted to determine titer followed by DNA preparation of pools of phage and NextGen sequencing. After rounds of selection, phage were pooled and amplified for iterative selection. Phage that eluted by 0.2M glycine pH 2.0 (the nerve binders) at each round were sequenced. NextGen sequencing of pools after 2, 3 and 4 rounds of selection were used to isolate candidate sequences that were further analyzed using bioinformatics.
NextGen sequencing of pools after 2, 3 and 4 rounds of selection were used to isolate candidate sequences from each of the five samples. These five data sets were then analyzed as described in the next section.
Peptide and vector sequences were translated starting at the first start codon in the nucleotide sequence. […] Trimmed peptides with identical sequences were combined and quantified according to their frequency (count).
Following processing, an R script was written to merge the unique peptide sequences (with counts 6 or greater) from the 5 different data sets to analyze the overlap between nerve and muscle binding activity.
For the single Nerve2, Nerve3, and Plated Nerve2 (pn2) subsets, the number of counts for each group was set at a threshold giving rise to at least 100 peptides. […] As highlighted in yellow in FIG. 1B, the representative group also included 6 unique peptides overlapping between nerve2 and nerve3, 200 unique peptides overlapping between nerve2 and plated nerve2 (at least 60 counts), 4 unique peptides overlapping between nerve3 and plated nerve2. Finally, as highlighted in green in FIG. 1B, the representative group also included […] common to the nerve2, nerve3, and plated nerve2 sets.

[1] = tested on: excised human nerve tissue; assay: Phage display selection on excised human nerve tissue (Nerve2, Nerve3), NextGen sequence counts; format: binding; settings: unique sequence count (relative enrichment)
Summary of the method: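 Randomized parent-peptide m13 phage libraries (about 50% mutation per residue) selected on washed excised human nerve tissue over multiple rounds, washing nerve pellet with PBS. NextGen sequencing of pools after rounds 2, 3 and 4; translated peptides counted by frequency, with counts 6 or greater retained.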

[2] = peptides overlapping between Nerve2 and Plated Nerve2

Substance | Count (human nerve extract) | other results
519 (HVLGEQPYSVVKTS) [compound 519] | 41 | –
534 (QIPLQDPYHVVEKS) [compound 534] | 38 | –
554 (QFPYDEPYNVVKKS) [compound 554] | 36 | –
480 (QMPSGAPYDATLNS) [compound 480] | 53 | –
504 (QVQWDGASSIVQKT) [compound 504] | 46 | –
493 (QISRGDTYYVMNKS) [compound 493] | 50 | –
456 (HFDWEEPYYDASKA) [compound 456] | 73 | –
501 (QLAGGDPYVLPKLS) [compound 501] | 47 | –
464 (ELPYEEPGTFVEKA) [compound 464] | 62 | –
509 (QRPGDEPSYFVKNS) [compound 509] | 45 | –
487 (DFQSEETRNLAKMP) [compound 487] | 51 | –
499 (QFPLFTTFYNVEES) [compound 499] | 47 | –
517 (QLPFNEPYYSQQVS) [compound 517] | 42 | –
476 (HVPVLEPYDLVKKS) [compound 476] | 54 | –
515 (SISSKDPYALVKYS) [compound 515] | 43 | –
488 (DVPWPAPYYAVSKY) [compound 488] | 51 | –
479 (QITSVDPSSLAYRS) [compound 479] | 53 | –
490 (QFQWETPSHVINDS) [compound 490] | 51 | –
551 (HVQWDQTSYVVKNS) [compound 551] | 36 | –
545 (RVTWEGPYNSVKKS) [compound 545] | 37 | –
495 (HLSVAEPYYAVRNS) [compound 495] | 49 | –
481 (QNPWDEPSYVVKNV) [compound 481] | 53 | –
454 (HVELESSYYFVNNS) [compound 454] | 78 | –
455 (QFPLAEPYYHLTES) [compound 455] | 77 | –

Substance | Count (human nerve extract) | other results
458 (NVTGAEYYYRMNNY) [compound 458] | 67 | –
523 (HVPSQEWYYDLHKS) [compound 523] | 40 | –
463 (QLPLYDPYYTVRTS) [compound 463] | 63 | –
549 (GLPSKEPYYVVKPA) [compound 549] | 36 | –
460 (HDASEGAYYVERNS) [compound 460] | 65 | –
489 (QFPGEESHYVVRNS) [compound 489] | 51 | –
461 (QFGWEEPYYVLHTV) [compound 461] | 65 | –
555 (QHPWKEQYYMATKP) [compound 555] | 36 | –
542 (QLPGAEAQNVVKYS) [compound 542] | 37 | –
498 (HVPQKEPYYVVKTF) [compound 498] | 48 | –
536 (QLPSQTQNYYDTNA) [compound 536] | 38 | –
522 (QTPAEKPYYVVKKY) [compound 522] | 41 | –
557 (QLPTNDPYYVLMES) [compound 557] | 36 | –
465 (QFPWEEPYYVFTNS) [compound 465] | 62 | –
518 (HLSMEAPYYGVKEY) [compound 518] | 41 | –
541 (LLTGAEPYYLGKRS) [compound 541] | 37 | –
533 (QFSRADSQYLVKNS) [compound 533] | 38 | –
540 (HVRFAEPYYAGKTS) [compound 540] | 37 | –
553 (QDPFGDLYYVTKMS) [compound 553] | 36 | –
556 (QLNSEEPYYHFKNY) [compound 556] | 36 | –
530 (LFTGQQSYYEVQES) [compound 530] | 38 | –
546 (DVALGESHYNVKKY) [compound 546] | 36 | –
510 (ELTMEQPSYVGNVS) [compound 510] | 44 | –
478 (QSPGTNPQNVLIKS) [compound 478] | 54 | –

Substance | Count (human nerve extract) | other results
544 (QYPWEQRYYFERKS) [compound 544] | 37 | –
462 (HLSREGTYYAVKQP) [compound 462] | 64 | –
537 (QLRSEDTYYTMQSY) [compound 537] | 38 | –
483 (QVLFAKSYYSVKDS) [compound 483] | 53 | –
521 (QLPWEGPYYIVKKS) [compound 521] | 41 | –
469 (QVPRPASSYIGKTS) [compound 469] | 58 | –
548 (EFPYQESEYIVKQS) [compound 548] | 36 | –
496 (QLQWQKSNWVGKIT) [compound 496] | 49 | –
543 (QLRFDEHHSVVTHS) [compound 543] | 37 | –
500 (QFPWETSYYIVKNS) [compound 500] | 47 | –
511 (QLPWHEAFFGVNNG) [compound 511] | 44 | –
383 (DVPFEHSYYGEQQY) [compound 383] | – | Count ([1]; Nerve3 only): 237
244 (QIPSQEPYHRFKES) [compound 244] | – | Count ([1]; Nerve2 only): 19
388 (HFPWDEAYLVVKNP) [compound 388] | – | Count ([1]; Nerve3 only): 230
245 (QIPGEAPYSFGKKY) [compound 245] | – | Count ([1]; Nerve2 only): 18
305 (YVPLQEPYYVVKQS) [compound 305] | – | Count ([1]; Nerve2 only): 11
251 (TQRWAEPYHVFHKS) [compound 251] | – | Count ([1]; Nerve2 only): 15
124 (LFASENPYNVKSKS) [compound 124] | – | Count [1, 2]: 103
80 (HVPWAGRHYVAKHS) [compound 80] | – | Count [1, 2]: 149
175 (HVTLEKPYDVATKS) [compound 175] | – | Count [1, 2]: 76
394 (HFPSEYPFDLVSKS) [compound 394] | – | Count ([1]; Nerve3 only): 196
393 (HINWDKRYAVVITY) [compound 393] | – | Count ([1]; Nerve3 only): 197
381 (QHPWEDPYKIFNKY) [compound 381] | – | Count ([1]; Nerve3 only): 240
396 (QIVLNAPYYVVKTS) [compound 396] | – | Count ([1]; Nerve3 only): 189

Substance | Count (human nerve extract) | other results
199 (HDSLDLHYYAMHES) [compound 199] | – | Count [1, 2]: 69
63 (QIPWGEAYQAEKIT) [compound 63] | – | Count [1, 2]: 191
342 (QTQCEEPCYVVKFA) [compound 342] | – | Count ([1]; Nerve2 only): 10
398 (QDPSVDPYYVDRSS) [compound 398] | – | Count ([1]; Nerve3 only): 181
326 (LASWDEPSSVLRES) [compound 326] | – | Count ([1]; Nerve2 only): 10
355 (RVPWQEPYYVVLKP) [compound 355] | – | Count ([1]; Nerve3 only): 419
238 (KFTTQDSYYFGTQT) [compound 238] | – | Count [1, 2]: 60
56 (QHTLNHPYSVVKTS) [compound 56] | – | Count [1, 2]: 205
105 (QIPMEETYSLRKMS) [compound 105] | – | Count [1, 2]: 113
295 (QFAGEVPYYFATDL) [compound 295] | – | Count ([1]; Nerve2 only): 11
292 (KFSLVHPEYYGKET) [compound 292] | – | Count ([1]; Nerve2 only): 11
161 (QFRSGEAYVVVQTS) [compound 161] | – | Count [1, 2]: 80
364 (QFPSVGSYYVVPQS) [compound 364] | – | Count ([1]; Nerve3 only): 331
27 (QDPCVWPYNGVKKC) [compound 27] | – | Count ([1]; peptides common to Nerve2, Nerve3 and Plated Nerve 2 sets): 79
316 (HVPSGERYYVVKTI) [compound 316] | – | Count ([1]; Nerve2 only): 10
32 (DDLWQDLYGVVKKS) [compound 32] | – | Count ([1]; peptides overlapping between Nerve2 and Nerve3): 106
82 (QIPEQQPYNVFKKS) [compound 82] | – | Count [1, 2]: 142
76 (HVPRVEPYNVVTNY) [compound 76] | – | Count [1, 2]: 158
173 (QQRLSASYQHVIKS) [compound 173] | – | Count [1, 2]: 77
157 (DVPWEEPYHVGNWR) [compound 157] | – | Count [1, 2]: 80
149 (HVSGTKPYHLVKKS) [compound 149] | – | Count [1, 2]: 86
